Reference: PMC10709440, “High-throughput ligand profile characterization in novel cell lines expressing seven heterologous insect olfactory receptors for the detection of volatile plant biomarkers” (Scientific Reports, 2023)
Read-outs that look alike come from different tables or passages of the source.

How the values were obtained:
OR49b = test system: OR49b; set-up: method as in earlier work; conditions: DoOR database value, ref DoOR, cited from earlier work
OR47a = test system: OR47a; set-up: method as in earlier work; conditions: DoOR database value, ref DoOR, cited from earlier work
OR85b = test system: OR85b; set-up: method as in earlier work; conditions: DoOR database value, ref DoOR, cited from earlier work
OR98a = test system: OR98a; set-up: method as in earlier work; conditions: DoOR database value, ref DoOR, cited from earlier work
OR13a = test system: OR13a; set-up: method as in earlier work; conditions: DoOR database value, ref DoOR, cited from earlier work
Drosophila OR98a = target: T1, Drosophila OR98a (Drosophila melanogaster, UniProt Q9VAZ3); experiment: Calcium ion fluorescence (GCaMP6) assay, OR98a stable HEK293 cell line; assay type: cell-based; conditions: for OR98a response (VUAA1-normalized) at 1 μM / OR98a response (VUAA1-normalized) at 10 μM / OR98a response (VUAA1-normalized) at 100 μM / Average response: OR98a cell line; for Average response: average of biological replicates, fraction of VUAA1 response; for OR98a Average response (VUAA1-normalized): 50 μM VUAA1 = 1
T1 construct: expressed in transfected cells
T1 sequence (Q9VAZ3 1-397): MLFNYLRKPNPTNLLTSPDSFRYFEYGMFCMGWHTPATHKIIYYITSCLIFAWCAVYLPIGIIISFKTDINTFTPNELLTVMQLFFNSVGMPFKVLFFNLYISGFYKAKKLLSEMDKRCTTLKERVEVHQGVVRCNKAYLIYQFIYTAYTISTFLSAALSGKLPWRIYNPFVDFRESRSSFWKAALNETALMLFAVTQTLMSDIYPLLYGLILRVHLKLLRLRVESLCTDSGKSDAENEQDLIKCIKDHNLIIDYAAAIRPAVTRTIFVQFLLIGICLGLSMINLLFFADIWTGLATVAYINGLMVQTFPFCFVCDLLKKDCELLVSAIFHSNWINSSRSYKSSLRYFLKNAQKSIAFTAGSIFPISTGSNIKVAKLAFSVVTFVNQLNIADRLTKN
T1 sequence (Q9VNB5 1-486 partner): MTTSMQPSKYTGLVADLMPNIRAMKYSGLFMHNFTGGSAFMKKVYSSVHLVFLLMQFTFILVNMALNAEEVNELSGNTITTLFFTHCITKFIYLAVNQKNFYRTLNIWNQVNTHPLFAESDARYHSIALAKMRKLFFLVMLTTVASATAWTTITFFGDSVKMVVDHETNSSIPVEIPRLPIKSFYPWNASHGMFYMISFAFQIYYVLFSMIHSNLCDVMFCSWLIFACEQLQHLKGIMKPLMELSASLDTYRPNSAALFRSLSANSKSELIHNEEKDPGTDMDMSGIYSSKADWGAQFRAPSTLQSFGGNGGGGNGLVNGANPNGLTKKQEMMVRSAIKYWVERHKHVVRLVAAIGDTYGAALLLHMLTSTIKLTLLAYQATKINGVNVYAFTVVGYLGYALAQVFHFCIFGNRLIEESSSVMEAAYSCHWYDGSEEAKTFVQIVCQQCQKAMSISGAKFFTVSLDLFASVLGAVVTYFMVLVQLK
Summary of the method: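 Responses are VUAA1-normalized ΔF: each VOC-evoked calcium signal, (FMAX−F0)/F0 over 30 s after injection, divided by the same line's mean 50 µM VUAA1 response. Cells were doxycycline-induced HEK293 with GCaMP6 and the cognate Drosophila OR, in HEPES buffer pH 7.3; ligands tested 0.01–100 μM.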

OR10a = test system: OR10a; set-up: method as in earlier work; conditions: DoOR database value, ref DoOR, cited from earlier work
[1] = HEK293, read-out: Average response
[2] = HEK293, read-out: OR98a Average response (VUAA1-normalized)
[3] = HEK293, read-out: OR98a response (VUAA1-normalized response)
[4] = concentration 1, normalized fluorescence change, values below 0.05 threshold given as 0
[5] = concentration 10, normalized fluorescence change, values below 0.05 threshold given as 0
[6] = concentration 100, normalized fluorescence change, values below 0.05 threshold given as 0
[7] = ligand concentration 1 (unit not given), threshold 0.05, below shown as 0
[8] = ligand concentration 10 (unit not given), threshold 0.05, below shown as 0
[9] = ligand concentration 100 (unit not given), threshold 0.05, below shown as 0

SMILES | OR49b DoOR response (OR49b) | OR47a DoOR response (OR47a) | OR85b DoOR response (OR85b) | OR98a DoOR response (OR98a) | OR13a DoOR response (OR13a) | activation at 1 µM (Drosophila OR98a; [1]) | activation at 10 µM (Drosophila OR98a; [1]) | activation at 100 µM (Drosophila OR98a; [1]) | activation at 1 µM (Drosophila OR98a; [3]) | activation at 10 µM (Drosophila OR98a; [3]) | activation at 100 µM (Drosophila OR98a; [3]) | DF norm AVERAGE OR98a (Drosophila OR98a; [4]) | DF norm AVERAGE OR98a (Drosophila OR98a; [5]) | DF norm AVERAGE OR98a (Drosophila OR98a; [6]) | OR10a DoOR response (OR10a) | DF norm AVERAGE OR98a (Drosophila OR98a; [7]) | DF norm AVERAGE OR98a (Drosophila OR98a; [8]) | DF norm AVERAGE OR98a (Drosophila OR98a; [9]) | other results
C=CC(O)CCCCC (centres unmarked) [1-octen-3-ol] | 0.016 | 0.25 | 0.53 | 0.58 | 0.78 | 0% | 1.13% | 21% | 0% | 0% | 21% | 0 | 0 | 0.2102 | 0.019 | – | – | – | activation at 1 µM (Drosophila OR98a; [2]): 0%; activation at 10 µM (Drosophila OR98a; [2]): 1%; activation at 100 µM (Drosophila OR98a; [2]): 21%
CCCCOC(C)=O [butyl acetate] | 0.035 | 0.77 | 0.78 | 0.70 | 0.31 | 3.31% | 0% | 4.29% | 0% | 0% | 0% | – | – | – | 0.27 | 0 | 0 | 0 | –
CCCC(=O)OCC [ethyl butyrate] | -0.002 | 0.26 | 0.21 | 0.25 | 0.11 | 3.54% | 0% | 6.6% | 0% | 0% | 6.6% | – | – | – | 0.025 | 0 | 0 | 0.06596 | –
CCCCCCCO [1-heptanol] | – | 0.095 | – | – | 0.28 | 4% | 5% | 0% | 0% | 5% | 0% | 0 | 0.05219 | 0 | – | – | – | – | –
CC(=O)c1ccccc1 [acetophenone] | 0.07 | 0.11 | 0.04 | 0.21 | 0.02 | 4% | 0% | 0% | 0% | 0% | 0% | – | – | – | 0.64 | 0 | 0 | 0 | –
O=Cc1ccccc1 [benzaldehyde] | 0.09 | 0.06 | 0.07 | 0.13 | 0.025 | 0% | 0% | 4.43% | 0% | 0% | 0% | – | – | – | 0.22 | 0 | 0 | 0 | –
CCCCCOC(C)=O [pentyl acetate] | – | – | – | – | – | 1.61% | 4% | 14% | – | – | – | – | – | – | – | 0 | 0 | 0.136 | OR49b DoOR response (OR49b; OR49b): 0.022; OR47a DoOR response (OR47a; OR47a): 0.82; OR85b DoOR response (OR85b; OR85b): 0.56; OR98a DoOR response (OR98a; OR98a): 0.64; OR13a DoOR response (OR13a; OR13a): 0.39; activation at 1 µM (Drosophila OR98a; [2]): 2%; activation at 10 µM (Drosophila OR98a; [2]): 4%; activation at 100 µM (Drosophila OR98a; [2]): 14%; OR98a response (VUAA1-normalized) at 1 μM (Drosophila OR98a; VOC concentration 1 μM): 0.00; OR98a response (VUAA1-normalized) at 10 μM (Drosophila OR98a; VOC concentration 10 μM): 0.00; OR98a response (VUAA1-normalized) at 100 μM (Drosophila OR98a; VOC concentration 100 μM): 0.14; OR10a DoOR response (OR10a; OR10a): 0.03
CCCOC(C)=O [propyl acetate] | – | – | – | – | – | 10% | 8% | 11% | – | – | – | – | – | – | – | 0.09538 | 0.07848 | 0.1069 | OR49b DoOR response (OR49b; OR49b): 0.023; OR47a DoOR response (OR47a; OR47a): 0.68; OR85b DoOR response (OR85b; OR85b): 0.49; OR98a DoOR response (OR98a; OR98a): 0.50; OR13a DoOR response (OR13a; OR13a): 0.14; activation at 1 µM (Drosophila OR98a; [2]): 10%; activation at 10 µM (Drosophila OR98a; [2]): 8%; activation at 100 µM (Drosophila OR98a; [2]): 11%; OR98a response (VUAA1-normalized) at 1 μM (Drosophila OR98a; VOC concentration 1 μM): 0.10; OR98a response (VUAA1-normalized) at 10 μM (Drosophila OR98a; VOC concentration 10 μM): 0.08; OR98a response (VUAA1-normalized) at 100 μM (Drosophila OR98a; VOC concentration 100 μM): 0.11; OR10a DoOR response (OR10a; OR10a): 0.18
C=C1CC/C=C(\C)CC[C@@H]2[C@@H]1CC2(C)C [(-)-trans-caryophyllene] | 0.001 | -0.002 | 0.053 | -0.004 | 0.0851 | 7% | 6% | 6% | 7% | 6% | 6% | 0.06975 | 0.06201 | 0.05748 | -0.002 | – | – | – | –
C=C(C)[C@H]1CC=C(C)CC1 [(R)-(+)-limonene] | 0.03 | – | 0.034 | 0.085 | 0.057 | – | – | – | – | – | – | 0 | 0 | 0 | 0.07 | – | – | – | OR98a response (VUAA1-normalized response) (Drosophila OR98a; VOC concentration 1 μM): 0.00; OR98a response (VUAA1-normalized response) (Drosophila OR98a; VOC concentration 10 μM): 0.00; OR98a response (VUAA1-normalized response) (Drosophila OR98a; VOC concentration 100 μM): 0.00; Average response (Drosophila OR98a; cc. 1 µM): 0.03; Average response (Drosophila OR98a; cc. 10 µM): 0.00; Average response (Drosophila OR98a; cc. 100 µM): 0.03
CCCCC(C)=O [2-hexanone] | – | – | – | – | 0.13 | 3% | 4.36% | 3.5% | 0% | 0% | 0% | 0 | 0 | 0 | 0.10 | – | – | – | –
CC(C)=CCC/C(C)=C/CC/C(C)=C/CO [e,e-farnesol] | – | – | – | – | 0.075 | – | – | – | – | – | – | – | – | – | 0.014 | 0 | 0.07127 | 0.09839 | OR98a Average response (VUAA1-normalized) (Drosophila OR98a; 1 μM VOC): 0.02; OR98a Average response (VUAA1-normalized) (Drosophila OR98a; 10 μM VOC): 0.07; OR98a Average response (VUAA1-normalized) (Drosophila OR98a; 100 μM VOC): 0.10; OR98a response (VUAA1-normalized response) (Drosophila OR98a; VOC concentration 1 μM): 0.00; OR98a response (VUAA1-normalized response) (Drosophila OR98a; VOC concentration 10 μM): 0.07; OR98a response (VUAA1-normalized response) (Drosophila OR98a; VOC concentration 100 μM): 0.10; Average response (Drosophila OR98a; cc. 1 µM): 0.017; Average response (Drosophila OR98a; cc. 10 µM): 0.07; Average response (Drosophila OR98a; cc. 100 µM): 0.10
